Columns and labels:
[1] = biological target: T1, human muscarinic M1 receptor (hM1) (Homo sapiens, UniProt P11229); experiment: R-SAT, transiently transfected NIH-3T3 cells; type: cell-based; details: for pEC50: agonist
T1 construct: gene CHRM1; full-length hM1
T1 sequence (P11229 1-460): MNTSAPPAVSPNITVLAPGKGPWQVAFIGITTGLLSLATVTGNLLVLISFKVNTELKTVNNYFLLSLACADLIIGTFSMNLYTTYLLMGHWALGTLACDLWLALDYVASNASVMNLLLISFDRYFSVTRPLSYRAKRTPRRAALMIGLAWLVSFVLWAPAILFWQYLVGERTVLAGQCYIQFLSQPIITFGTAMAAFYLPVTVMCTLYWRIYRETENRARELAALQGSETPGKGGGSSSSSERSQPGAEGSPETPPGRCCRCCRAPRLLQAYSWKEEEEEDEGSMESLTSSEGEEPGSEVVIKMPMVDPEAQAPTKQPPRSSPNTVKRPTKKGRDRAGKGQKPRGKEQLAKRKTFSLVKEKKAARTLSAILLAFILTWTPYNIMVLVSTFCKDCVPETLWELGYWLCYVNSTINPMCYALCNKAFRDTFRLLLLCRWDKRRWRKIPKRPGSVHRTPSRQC
From the text: R-SAT, transiently transfected NIH-3T3 cells on human muscarinic M1 receptor (hM1)

[2] = biological target: T1, human muscarinic M1 receptor (hM1); experiment: PI hydrolysis, CHO-M1 cells; type: cell-based; details: partial agonist; 60 min, 37°C, 10 mM LiCl; allosteric component
From the text: PI hydrolysis, CHO-M1 cells on human muscarinic M1 receptor (hM1)

SMILES | pEC50 [1] | also measured
CCCCC1CCN(CCCN2C(=O)COc3cc(Cl)ccc32)CC1 [AC-260515, 4-[3-(4-butyl-piperidin-1-yl)-propyl]-7-chloro-2H-benzo[b][1, 4]oxazin-3-one] |  | EC50 [1]: 251 nM
CCCCC1CCN(CCCN2C(=O)COc3cc(F)ccc32)CC1 [AC-260977, (R)-4-[3-(4-butylpiperidin-1-yl)propyl]-7-fluoro-2H-benzo[b][1, 4]oxazin-3-one] | 7.7 ± 0.1 | 
O=C1COc2cc(F)ccc2N1CCCN1CCC(OCC2CC2)CC1 [AC-262469, 4-[3-(4-cyclopropylmethyloxypiperidin-1-yl)propyl]-7-fluoro-2H-benzo[b][1, 4]oxazin-3-one] | 7.2 ± 0 | 
Clc1ccc2c(c1)N=C(N1CCNCC1)c1ccccc1N2 [NDMC] |  | PI Hydrolysis / pEC50 [2]: 7.1 ± 0.4

— article PMC2794843, “Differential regulation of muscarinic M1 receptors by orthosteric and allosteric ligands” (BMC Pharmacology, 2009)
